Laboratory results: paper PMC5363699, “Transcriptional, Functional, and Mechanistic Comparisons of Stem Cell–Derived Hepatocytes, HepaRG Cells, and Three-Dimensional Human Hepatocyte Spheroids as Predictive In Vitro Systems for Drug-Induced Liver Injury” (Drug Metabolism and Disposition, 2017)
Counter-ions that a name gives are not always drawn. Like-named read-outs stand apart in the source and are kept apart here.

Tests used:
[1] = tested on: C3A; parameters: method as in Fey and Wrzesinski (2012); settings: published spheroid model, acute; ref Fey and Wrzesinski (2012); read-out: Sensitivity, C3A Acute; cited from earlier work
[2] = tested on: HLC; parameters: method as in Takayama et al. (2013), Tasnim et al. (2016); settings: read-out: Sensitivity, HLC Acute, cited from earlier work
[3] = tested on: HepaRG; settings: cited from earlier work
[4] = tested on: HepG2; settings: cited from earlier work
[5] = cited from earlier work; for Cmax: human
[6] = tested on: Rat Hepatocytes; parameters: method as in Schutte et al. (2011); settings: published model, acute; ref Schutte et al. (2011); read-out: Sensitivity, Rat Hepatocytes Acute; cited from earlier work
[7] = tested on: PHH spheroids; assay: Viability (cellular ATP, CellTiter-Glo) of 3D PHH spheroids after single or repeated exposure; assay type: cell-based, human; settings: for EC50: read-out: EC50 (viability)
[8] = tested on: hiPS-Hep cells; assay: Viability (cellular ATP, CellTiter-Glo) of hiPS-Hep cells after single or repeated exposure; assay type: cell-based; settings: Homo sapiens; for EC50: read-out: EC50 (viability); for IC50: read-out: 14-day IC50
[9] = 4 g APAP daily for 14 days; ref Watkins et al., 2006; cited from earlier work
[10] = tested on: HepaRG cells; assay: cells; assay type: cell-based; settings: Homo sapiens; for EC50: read-out: EC50 (viability)
[11] = tested on: BSEP; parameters: method as in Funk et al., 2001; settings: ref Funk et al., 2001; read-out: IC50 of BSEP inhibition; cited from earlier work
[12] = published spheroid model, acute, ref Takayama et al. (2013), Tasnim et al. (2016)
[13] = published spheroid model, acute, ref Gunness et al. (2013), Mueller et al. (2014), read-out: Sensitivity, HepaRG Acute
[14] = published spheroid model, acute, ref Mueller et al. (2014), Ramaiahgari et al. (2014), Takayama et al. (2013), read-out: Sensitivity, HepG2 Acute
[15] = published spheroid model, repeated dose 6 days, ref Ramaiahgari et al. (2014), read-out: Sensitivity, HepG2 Repeated Dose (6 Days)
[16] = 336 h, hiPS-Hep cells, 14 days repeated exposure
[17] = 336 h, HepaRG cells, 14 days repeated exposure, read-out: 14-day IC50

Molecule	IC50 [2, 12]	IC50 [3, 13]	IC50 [4, 14]	IC50 [4, 15]	EC50 ([7]; Homo sapiens, 48 h)	EC50 ([7]; Homo sapiens, 168 h)	EC50 ([7]; Homo sapiens, 336 h)	EC50 ([8]; 48 h)	EC50 ([8]; 168 h)	EC50 ([8]; 336 h)	IC50 [8, 16]	IC50 [10, 17]	EC50 ([10]; HepaRG, 48 h)	EC50 ([10]; HepaRG, 168 h)	EC50 ([10]; HepaRG, 336 h)	also measured
CC(=O)Nc1ccc(O)cc1 [APAP, acetaminophen]	30000 µM	3000 µM	24000 µM	9400 µM	> 10000 µM	2700 µM	644 µM	> 10000 µM	> 10000 µM	9440 µM	9440 µM	1310 µM	5920 µM	1590 µM	1310 µM	IC50 [1]: 40000 µM; peak APAP serum level average ([5]; healthy volunteers, 4 g APAP daily for 14 days, ref Watkins et al., 2006): 99.2 µM; APAP plasma concentration for which immediate treatment is stipulated ([5]; patients after acute overdose, depending on additional risk factors, ref Vale and Proudfoot, 1995): 0.7 to 1.3 mM; Cmax ([5]; read-out: Cmax or exposure value (toxic), toxic exposure, ref Vale and Proudfoot, 1995): 700000 nM; IC50 [6]: 40000 µM; IC50 ([7]; Homo sapiens, 336 h, PHH spheroids, 14 days repeated exposure, read-out: 14-day IC50): 644 µM; healthy volunteers with serum alanine aminotransferase elevations above three times the upper limit [9]: 31%–44%; IC50 ([10]; read-out: 48-hour IC50, HepaRG cells, acute, 48 hours): 5920 µM
aflatoxin B1	–	–	–	–	–	–	–	–	–	–	–	–	–	–	–	IC50 [2]: 7 µM; IC50 ([3]; read-out: Sensitivity, HepaRG Acute): 1.6 µM; IC50 ([4]; read-out: Sensitivity, HepG2 Acute): > 200 µM; exposure levels detected in exposed individuals ([5]; in vivo): 28.5 nM; Cmax ([5]; read-out: Cmax or exposure value (toxic), in vivo): 30 nM; IC50 ([7]; read-out: Sensitivity, PHH Acute): 0.4 µM; IC50 ([7]; read-out: Sensitivity, PHH Repeated Dose (14 Days)): 0.03 µM
Cc1c(C)c2c(c(C)c1OS(=O)(=O)O)CCC(C)(COc1ccc(CC3SC(=O)NC3=O)cc1)O2 (stereo not drawn) [troglitazone sulfate]	–	–	–	–	–	–	–	–	–	–	–	–	–	–	–	IC50 [11]: 0.4 µM
Cc1c(C)c2c(c(C)c1O)CCC(C)(COc1ccc(CC3SC(=O)NC3=O)cc1)O2 (stereo not drawn) [Troglitazone, troglitazone]	50 µM	400 µM	80 to 150 µM	100 µM	37.4 µM	4.2 µM	1.5 µM	46 µM	33.9 µM	18.7 µM	–	–	> 100 µM	36.5 µM	34.6 µM	Cmax ([5]; read-out: therapeutic Cmax, ref Loi et al., 1999): 2820 nM; IC50 ([7]; Homo sapiens, read-out: Sensitivity, PHH Acute): 37.4 µM; IC50 ([8]; 336 h): 18.7 µM; IC50 ([10]; HepaRG, 336 h, read-out: 14-day IC50): 34.6 µM
CN(C)CCCN1c2ccccc2Sc2ccc(Cl)cc21 [Chlorpromazine, chlorpromazine]	–	98 µM	43 µM	–	16.6 µM	8.8 µM	4.6 µM	38.6 µM	23.7 µM	24.4 µM	24.6 µM	34.1 µM	67 µM	32.4 µM	34.1 µM	IC50 ([3]; published spheroid model, repeated dose 72 h, ref Mueller et al. (2014), read-out: Sensitivity, HepaRG Repeated Dose (72 h)): 43 µM; Cmax ([5]; read-out: human toxic Cmax, toxic exposure, ref Regenthal et al., 1999): 1600 nM
CCOC(=O)CN[C@@H](C(=O)N1CC[C@H]1C(=O)NCc1ccc(/C(N)=N\O)cc1)C1CCCCC1 [Ximelagatran, ximelagatran]	–	–	–	–	> 400 µM	379 µM	165 µM	> 400 µM	> 400 µM	> 400 µM	–	–	> 400 µM	> 400 µM	> 400 µM	–
